Experimental data: patent US11358950B2, “SMAC mimetics used as IAP inhibitors and use thereof” (CHIA TAI TIANQING PHARMACEUTICAL GROUP CO., LTD., priority 2017, dated 2022)

Columns and labels:
[1] = test system: MDA-MB-231 cells; assay: In-vitro cell viability test (CellTiter-Glo, 7 days); format: cell-based; settings: Homo sapiens, 168 h, 7 days incubation
Protocol: RPMI 1640 medium (Invitrogen-22400089); fetal bovine serum (Invitrogen-10099141); Trypsin, 0.05% (1×) with EDTA 4Na (Invitrogen-25300062); luminescent cell viability assay kit (Promega-G7573); Dulbecco's phosphate buffered saline (HyClone-SH30028.01B); and 384-well plate (Corning-6007680). Envision Multi-label Analyzer.
1. 30 μL of MDA-MB-231 cell suspension, which contained 250 MDA-MB-231 cells, was added into the wells of a 384-microwell plate.
2. 20 μL of a test compound (the test compounds were formulated at a high concentration of 10 μM, the test compounds were subjected to a 5-fold gradient dilution, and each compound was diluted to 10 concentration gradients) was added, and then the cell plate was put back into a carbon dioxide incubator to be incubated for 7 days.
3. The cell plate was kept flat at room temperature for 30 minutes.
4. 20 μL of a Promega CellTiter-Glo reagent was added into each well of the cell plate.
5. After 10 minutes, the Envision Multi-label Analyzer was used for data reading.

[2] = test system: MDA-MB-231 triple-negative breast cancer CDX; assay: In-vivo drug efficacy study 2, MDA-MB-231 CDX model; set-up: species or system BALB/c nude mice
Protocol: (§1) The in-vivo drug efficacy experiments were carried out in BALB/c nude mice implanted subcutaneously with human tumor cell line-derived xenograft (CDX) derived from patients suffering from MDA-MB-231 triple-negative breast cancer.
(§2) BALB/c nude mice, female, 6 to 8 weeks old, weighing about 18 to 22 g, were kept in a special pathogen-free environment and in separated ventilated cages (3 mice per cage). All cages, bedding and water were disinfected before use. All animals had free access to standard certified commercial laboratory diets. A total of 48 mice purchased from Shanghai BK Laboratory Animal Co., LTD were used for the study. Each mouse was inoculated subcutaneously in the right flank with tumor cells (10×10^6 cells in 0.2 mL of a phosphate buffer) for tumor growth. The administration was initiated when the average tumor volume reached about 110 cubic millimeters. The test compounds were orally administered daily at a dose of 30 mg/kg. Tumor volumes were measured with a two-dimensional caliper every 3 days. The volume was measured in cubic millimeters and calculated by the following formula: V=0.5 a×b^2, where a and b were the long and short diameters of a tumor, respectively. Anti-tumor efficacy was determined by dividing the average increase in tumor volume of animals treated with a compound by the average increase in tumor volume of untreated animals.

[3] = test system: MDA-MB-231 triple-negative breast cancer CDX; assay: In-vivo drug efficacy study 1, MDA-MB-231 CDX model; set-up: species or system BALB/c nude mice
Protocol: as §1
as §2, with “147” for “110”

**Q.** CN[C@@H](C)C(=O)N[C@H](C(=O)N1CCC[C@H]1Cn1cc(C(C)=O)c2cc(Cl)ccc21)C1CCCCC1 [Example 2] was tested. Which IC50 [1] did it give?
**A.** 54.8 nM

**Q.** What about the Tumor volume ([2]; Day 0, 30 mg/kg oral daily) of the same compound?
**A.** 110 mm^3

**Q.** And the Tumor volume ([2]; Day 5, 30 mg/kg oral daily)?
**A.** 111 mm^3

**Q.** What about the Tumor volume ([2]; Day 12, 30 mg/kg oral daily) of the same compound?
**A.** 86 mm^3

**Q.** And the Tumor volume ([2]; Day 20, 30 mg/kg oral daily)?
**A.** 177 mm^3

**Q.** And the “Tumor volume” value ([3]; Day 0, 30 mg/kg oral daily)?
**A.** 147 mm^3

**Q.** What about the “Tumor volume” value ([3]; Day 6, 30 mg/kg oral daily) of the same compound?
**A.** 214 mm^3

**Q.** What about the “Tumor volume” value ([3]; Day 13, 30 mg/kg oral daily) of the same compound?
**A.** 282 mm^3

**Q.** And the “Tumor volume” value ([3]; Day 20, 30 mg/kg oral daily)?
**A.** 810 mm^3
